Consider 17 compounds from patent US8450522B2, “Conformationally constrained carboxylic acid derivatives useful for treating metabolic disorders” (Amgen Inc., priority 2008, dated 2013).

pEC50: −log10 of the molar value.

GPR40, sequence (O14842 whole entry): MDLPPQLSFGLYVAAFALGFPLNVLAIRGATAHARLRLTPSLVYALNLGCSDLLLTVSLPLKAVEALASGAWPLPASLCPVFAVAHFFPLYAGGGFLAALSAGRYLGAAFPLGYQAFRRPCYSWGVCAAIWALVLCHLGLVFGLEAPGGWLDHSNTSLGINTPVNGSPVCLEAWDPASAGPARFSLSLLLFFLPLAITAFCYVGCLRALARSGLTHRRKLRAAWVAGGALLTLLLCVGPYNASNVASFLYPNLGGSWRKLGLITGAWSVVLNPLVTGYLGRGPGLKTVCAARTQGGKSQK

In this assay the target is GPR40 (Homo sapiens, UniProt O14842). The assay can be described thus: Cell-based aequorin assay (CHO cells stably transfected with GPR40 and aequorin). The following applies: activation of human GPR40, CHO cells, 0.01% HSA. Further details: expressed in transfected cells. As to the method:
Briefly, the Aequorin assays were performed on doubly stable CHO cells expressing GPR40 and Aequorin DNA. […] The luminescence was recorded over a period of 20 seconds with a Microlumat luminometer (Berthold).
Cell-based aequorin assays were employed to characterize the modulatory activity of compounds on the GPR40 signaling pathway. In an exemplary assay, CHO cells were stably transfected with both GPR40 and Aequorin (Euroscreen). Cells were detached from the tissue culture dish with 2 mL of trypsin (0.25% (w/v)). Trypsinization was halted with 28 mL of Hanks Buffered Salt Solution containing 20 mM Hepes (H/HBSS) and 0.01% fatty acid-free human serum albumin (HSA). Coelantrazine is added to 1 ug/mL, and the cells were incubated for 2 hours at room temperature. Compounds were dissolved in DMSO for preparation of 10 mM stock solutions. Compounds were diluted in H/HBSS containing 0.01% HSA. Serial dilutions of the test compounds were prepared to determine dose response.
Aequorin luminescence measurements were made using an EG&G Berthold 96-well luminometer, and the response was measured over a 20 second interval after cells and compounds were mixed. The maximum relative light units was plotted to determine dose response. The EC50 (effective concentration to reach 50% maximal response) was determined from the dose response plot.
In general, pEC50 refers to the EC50 on a negative log10 scale, so that one unit is a factor of ten. Read a low pEC50 as a high EC50. `COc1ccc(F)c(-c2ccc(COc3ccc4c(c3)[C@H](CC(=O)O)C4)cc2C(C)(C)C)c1` (single isomer, unassigned) [Example 3, (R)-2-(5-(3-t-Butyl-4-(2-fluoro-5-methoxyphenyl)benzyloxy)-1,2-dihydrocyclobutabenzen-1-yl)acetic acid or (S)-2-(5-(3-t-butyl-4-(2-fluoro-5-methoxyphenyl)benzyloxy)-1,2-dihydrocyclobutabenzen-1-yl)acetic acid] had a negative logarithm of the EC50 (pEC50) of 5.00 to 6.00.

Consider `COc1ccc(F)c(-c2ccc(COc3ccc4c(c3)[C@@H](CC(=O)O)C4)cc2C(C)(C)C)c1` (single isomer, unassigned) [Example 4, ((7R)-4-(((2-(1,1-Dimethylethyl)-2′-fluoro-5′-(methyloxy)-1,1′-biphenyl-4-yl)methyl)oxy)bicyclo[4.2.0]octa-1,3,5-trien-7-yl)acetic acid or ((7R)-4-(((2-(1,1-dimethylethyl)-2′-fluoro-5′-(methyloxy)-1,1′-biphenyl-4-yl)methyl)oxy)bicyclo[4.2.0]octa-1,3,5-trien-7-yl)acetic acid], for which the negative logarithm of the EC50 (pEC50) is < 5.00.

`COc1ccc(F)c(-c2ccc(COc3ccc4c(c3)CC[C@@H]4CC(=O)O)cc2C(C)(C)C)c1` (single isomer, unassigned) [Example 5, (R)-Methyl 2-(5-(3-t-butyl-4-(2-fluoro-5-methoxyphenyl)benzyloxy)-2,3-dihydro-1H-inden-1-yl)acetic acid or (S)-methyl 2-(5-(3-t-butyl-4-(2-fluoro-5-methoxyphenyl)benzyloxy)-2,3-dihydro-1H-inden-1-yl)acetic acid] gave a pEC50 of 5.00 to 6.00.

In the case of `COc1ccc(F)c(-c2ccc(COc3ccc4c(c3)[C@@H](CC(=O)O)C(C)(C)C4)cc2C(C)(C)C)c1` (single isomer, unassigned) [Example 8, ((1S)-6-(((2-(1,1-Dimethylethyl)-2′-fluoro-5′-(methyloxy)-1,1′-biphenyl-4-yl)methyl)oxy)-2,2-dimethyl-2,3-dihydro-1H-inden-1-yl)acetic acid or ((1R)-6-(((2-(1,1-dimethylethyl)-2′-fluoro-5′-(methyloxy)-1,1′-biphenyl-4-yl)methyl)oxy)-2,2-dimethyl-2,3-dihydro-1H-inden-1-yl)acetic acid], the negative-log EC50 (pEC50) is 5.00 to 6.00.

The compound `COc1ccc(F)c(-c2ccc(COc3ccc4c(c3)[C@@H](CC(=O)O)C(C)(C)C4)cc2C2=CCCC2(C)C)c1` (single isomer, unassigned) [Example 9, ((1S)-6-(((2-(5,5-Dimethyl-1-cyclopenten-1-yl)-2′-fluoro-5′-(methyloxy)-1,1′-biphenyl-4-yl)methyl)oxy)-2,2-dimethyl-2,3-dihydro-1H-inden-1-yl)acetic acid or ((1R)-6-(((2-(5,5-dimethyl-1-cyclopenten-1-yl)-2′-fluoro-5′-(methyloxy)-1,1′-biphenyl-4-yl)methyl)oxy)-2,2-dimethyl-2,3-dihydro-1H-inden-1-yl)acetic acid] gave a negative-log EC50 (pEC50) of 6.00 to 7.00.

`COc1ccc(F)c(-c2ccc(COc3ccc4c(c3)[C@H](CC(=O)O)C(C)(C)C4)cc2C(C)(C)C)c1` (single isomer, unassigned) [Example 10, ((1R)-6-(((2-(1,1-Dimethylethyl)-2′-fluoro-5′-(methyloxy)-1,1′-biphenyl-4-yl)methyl)oxy)-2,2-dimethyl-2,3-dihydro-1H-inden-1-yl)acetic acid or ((1S)-6-(((2-(1,1-dimethylethyl)-2′-fluoro-5′-(methyloxy)-1,1′-biphenyl-4-yl)methyl)oxy)-2,2-dimethyl-2,3-dihydro-1H-inden-1-yl)acetic acid] had a pEC50 of 5.00 to 6.00.

Regarding `COc1ccc(F)c(-c2ccc(COc3ccc4c(c3)[C@@H](C(C)(C)C(=O)O)CC4)cc2C2=CCCC2(C)C)c1` (single isomer, unassigned) [Example 11, 2-((1S)-6-(((2-(5,5-Dimethyl-1-cyclopenten-1-yl)-2′-fluoro-5′-(methyloxy)-1,1′-biphenyl-4-yl)methyl)oxy)-2,3-dihydro-1H-inden-1-yl)-2-methylpropanoic acid or 2-((1R)-6-(((2-(5,5-dimethyl-1-cyclopenten-1-yl)-2′-fluoro-5′-(methyloxy)-1,1′-biphenyl-4-yl)methyl)oxy)-2,3-dihydro-1H-inden-1-yl)-2-methylpropanoic acid], the pEC50 is 6.00 to 7.00.

On to `COc1ccc(F)c(-c2ccc(COc3ccc4c(c3)[C@@H](C(C)(C)C(=O)O)CC4)cc2C(C)(C)C)c1` (single isomer, unassigned) [Example 12, 2-((1S)-6-(((2-(1,1-Dimethylethyl)-2′-fluoro-5′-(methyloxy)-1,1′-biphenyl-4-yl)methyl)oxy)-2,3-dihydro-1H-inden-1-yl)-2-methylpropanoic acid or 2-((1R)-6-(((2-(1,1-Dimethylethyl)-2′-fluoro-5′-(methyloxy)-1,1′-biphenyl-4-yl)methyl)oxy)-2,3-dihydro-1H-inden-1-yl)-2-methylpropanoic acid], for which the negative-log EC50 (pEC50) was 6.00 to 7.00.

Turning to `COc1cccc(-c2ccc(COc3ccc4c(c3)[C@@H](CC(=O)O)CC4)cc2C(C)(C)C)c1` (single isomer, unassigned) [Example 25, ((1R)-6-(((2-(1,1-Dimethylethyl)-3′-(methyloxy)-1,1′-biphenyl-4-yl)methyl)oxy)-2,3-dihydro-1H-inden-1-yl)acetic acid or ((1S)-6-(((2-(1,1-dimethylethyl)-3′-(methyloxy)-1,1′-biphenyl-4-yl)methyl)oxy)-2,3-dihydro-1H-inden-1-yl)acetic acid], the pEC50 is 5.00 to 6.00.

For `COc1cccc(-c2ccc(COc3ccc4c(c3)[C@@H]([C@@H](C)C(=O)O)CC4)cc2C(C)(C)C)c1` (single isomer, unassigned) [Example 26, 2-((1R)-6-(((2-(1,1-dimethylethyl)-3′-(methyloxy)-1,1′-biphenyl-4-yl)methyl)-oxy)-2,3-dihydro-1H-inden-1-yl)propanoic acid or stereoisomer thereof], the pEC50 was 5.00 to 6.00.

Compound `CCC(C)(C)[C@H](OC)c1cc(COc2ccc3c(c2)[C@@H]([C@@H](C)C(=O)O)CC3)ccc1-c1cc(OC)ccc1F` (single isomer, unassigned) [Example 27, 2-((1R)-6-(((2-((1R)-2,2-Dimethyl-1-(methyloxy)butyl)-2′-fluoro-5′-(methyloxy)-1,1′-biphenyl-4-yl)methyl)oxy)-2,3-dihydro-1H-inden-1-yl)propanoic acid (27) or stereoisomer thereof] gave a pEC50 of 5.00 to 6.00.

Regarding `C=CC(C)(C)[C@H](O)c1cc(COc2ccc3c(c2)[C@@H]([C@@H](C)C(=O)O)CC3)ccc1-c1cc(OC)ccc1F` (single isomer, unassigned) [Example 28, 2-((1R)-6-(((2′-Fluoro-2-((1S)-1-hydroxy-2,2-dimethyl-3-butenyl)-5′-(methyloxy)-1,1′-biphenyl-4-yl)methyl)oxy)-2,3-dihydro-1H-inden-1-yl)propanoic acid or stereoisomer thereof], the pEC50 was 5.00 to 6.00.

`COc1ccc(F)c(-c2ccc(COc3ccc4c(c3)C[C@@H]4CC(=O)O)cc2C(C)(C)C)c1` (single isomer, unassigned) [Example 29, ((7S)-3-((2′-Fluoro-5′-methoxy-2-(2-methyl-2-propanyl)-4-biphenylyl)methoxy)bicycle[4.2.0]octa-1,3,5-trien-7-yl)acetic acid or ((7R)-3-((2′-fluoro-5′-methoxy-2-(2-methyl-2-propanyl)-4-biphenylyl)methoxy)bicycle[4.2.0]octa-1,3,5-trien-7-yl)acetic acid] had a negative-log EC50 (pEC50) of 5.00 to 6.00.

The compound `COc1ccc(F)c(-c2ccc(COc3ccc4c(c3)C[C@H]4CC(=O)O)cc2C(C)(C)C)c1` (single isomer, unassigned) [Example 30, ((7S)-3-((2′-Fluoro-5′-methoxy-2-(2-methyl-2-propanyl)-4-biphenylyl)methoxy)bicycle[4.2.0]octa-1,3,5-trien-7-yl)acetic acid or ((7R)-3-((2′-fluoro-5′-methoxy-2-(2-methyl-2-propanyl)-4-biphenylyl)methoxy)bicycle[4.2.0]octa-1,3,5-trien-7-yl)acetic acid] gave a negative-log EC50 (pEC50) of 5.00 to 6.00.

`COc1ccc(F)c(-c2ccc(COc3ccc4c(c3)CC[C@@H]4CC(=O)O)cc2C(C)(C)C)c1` (single isomer, unassigned) [Example 31, ((1S)-5-((2′-Fluoro-5′-methoxy-2-(2-methyl-2-propanyl)-4-biphenylyl)methoxy)-2,3-dihydro-1H-inden-1-yl)acetic acid or ((1R)-5-((2′-fluoro-5′-methoxy-2-(2-methyl-2-propanyl)-4-biphenylyl)methoxy)-2,3-dihydro-1H-inden-1-yl)acetic acid] gave a negative logarithm of the EC50 (pEC50) of 5.00 to 6.00.

Regarding `COc1ccc(F)c(-c2ccc(COc3ccc4c(c3)CC[C@H]4CC(=O)O)cc2C(C)(C)C)c1` (single isomer, unassigned) [Example 32, ((1S)-5-((2′-Fluoro-5′-methoxy-2-(2-methyl-2-propanyl)-4-biphenylyl)methoxy)-2,3-dihydro-1H-inden-1-yl)acetic acid or ((1R)-5-((2′-fluoro-5′-methoxy-2-(2-methyl-2-propanyl)-4-biphenylyl)methoxy)-2,3-dihydro-1H-inden-1-yl)acetic acid], the pEC50 was 5.00 to 6.00.

As to `COc1cc(-c2ccc(COc3ccc4c(c3)[C@H](CC(=O)O)CCC4)cc2[C@H]2CCCC2(C)C)c(F)cn1` (single isomer, unassigned) [Example 47], the pEC50 was 5.00 to 6.00.
